Experimental data taken from patent US20110263569A1, “RYANODINE CHANNEL BINDERS AND USES THEREOF” (President and Fellows of Harvard College, priority 2007, published 2011).

target: T1, calstabin2 (FKBP12.6) binding to PKA-phosphorylated cardiac sarcoplasmic reticulum (CSR) (Homo sapiens, UniProt Q92736); experiment: Calstabin 2 (FKBP12.6) Assay; conditions: 250 nM calstabin2, approximately 20 μg PKA-phosphorylated CSR, room temperature 30 minutes, immunoblot detection of calstabin2 binding
T1 construct: from tissue
T1 sequence (Q92736 whole entry): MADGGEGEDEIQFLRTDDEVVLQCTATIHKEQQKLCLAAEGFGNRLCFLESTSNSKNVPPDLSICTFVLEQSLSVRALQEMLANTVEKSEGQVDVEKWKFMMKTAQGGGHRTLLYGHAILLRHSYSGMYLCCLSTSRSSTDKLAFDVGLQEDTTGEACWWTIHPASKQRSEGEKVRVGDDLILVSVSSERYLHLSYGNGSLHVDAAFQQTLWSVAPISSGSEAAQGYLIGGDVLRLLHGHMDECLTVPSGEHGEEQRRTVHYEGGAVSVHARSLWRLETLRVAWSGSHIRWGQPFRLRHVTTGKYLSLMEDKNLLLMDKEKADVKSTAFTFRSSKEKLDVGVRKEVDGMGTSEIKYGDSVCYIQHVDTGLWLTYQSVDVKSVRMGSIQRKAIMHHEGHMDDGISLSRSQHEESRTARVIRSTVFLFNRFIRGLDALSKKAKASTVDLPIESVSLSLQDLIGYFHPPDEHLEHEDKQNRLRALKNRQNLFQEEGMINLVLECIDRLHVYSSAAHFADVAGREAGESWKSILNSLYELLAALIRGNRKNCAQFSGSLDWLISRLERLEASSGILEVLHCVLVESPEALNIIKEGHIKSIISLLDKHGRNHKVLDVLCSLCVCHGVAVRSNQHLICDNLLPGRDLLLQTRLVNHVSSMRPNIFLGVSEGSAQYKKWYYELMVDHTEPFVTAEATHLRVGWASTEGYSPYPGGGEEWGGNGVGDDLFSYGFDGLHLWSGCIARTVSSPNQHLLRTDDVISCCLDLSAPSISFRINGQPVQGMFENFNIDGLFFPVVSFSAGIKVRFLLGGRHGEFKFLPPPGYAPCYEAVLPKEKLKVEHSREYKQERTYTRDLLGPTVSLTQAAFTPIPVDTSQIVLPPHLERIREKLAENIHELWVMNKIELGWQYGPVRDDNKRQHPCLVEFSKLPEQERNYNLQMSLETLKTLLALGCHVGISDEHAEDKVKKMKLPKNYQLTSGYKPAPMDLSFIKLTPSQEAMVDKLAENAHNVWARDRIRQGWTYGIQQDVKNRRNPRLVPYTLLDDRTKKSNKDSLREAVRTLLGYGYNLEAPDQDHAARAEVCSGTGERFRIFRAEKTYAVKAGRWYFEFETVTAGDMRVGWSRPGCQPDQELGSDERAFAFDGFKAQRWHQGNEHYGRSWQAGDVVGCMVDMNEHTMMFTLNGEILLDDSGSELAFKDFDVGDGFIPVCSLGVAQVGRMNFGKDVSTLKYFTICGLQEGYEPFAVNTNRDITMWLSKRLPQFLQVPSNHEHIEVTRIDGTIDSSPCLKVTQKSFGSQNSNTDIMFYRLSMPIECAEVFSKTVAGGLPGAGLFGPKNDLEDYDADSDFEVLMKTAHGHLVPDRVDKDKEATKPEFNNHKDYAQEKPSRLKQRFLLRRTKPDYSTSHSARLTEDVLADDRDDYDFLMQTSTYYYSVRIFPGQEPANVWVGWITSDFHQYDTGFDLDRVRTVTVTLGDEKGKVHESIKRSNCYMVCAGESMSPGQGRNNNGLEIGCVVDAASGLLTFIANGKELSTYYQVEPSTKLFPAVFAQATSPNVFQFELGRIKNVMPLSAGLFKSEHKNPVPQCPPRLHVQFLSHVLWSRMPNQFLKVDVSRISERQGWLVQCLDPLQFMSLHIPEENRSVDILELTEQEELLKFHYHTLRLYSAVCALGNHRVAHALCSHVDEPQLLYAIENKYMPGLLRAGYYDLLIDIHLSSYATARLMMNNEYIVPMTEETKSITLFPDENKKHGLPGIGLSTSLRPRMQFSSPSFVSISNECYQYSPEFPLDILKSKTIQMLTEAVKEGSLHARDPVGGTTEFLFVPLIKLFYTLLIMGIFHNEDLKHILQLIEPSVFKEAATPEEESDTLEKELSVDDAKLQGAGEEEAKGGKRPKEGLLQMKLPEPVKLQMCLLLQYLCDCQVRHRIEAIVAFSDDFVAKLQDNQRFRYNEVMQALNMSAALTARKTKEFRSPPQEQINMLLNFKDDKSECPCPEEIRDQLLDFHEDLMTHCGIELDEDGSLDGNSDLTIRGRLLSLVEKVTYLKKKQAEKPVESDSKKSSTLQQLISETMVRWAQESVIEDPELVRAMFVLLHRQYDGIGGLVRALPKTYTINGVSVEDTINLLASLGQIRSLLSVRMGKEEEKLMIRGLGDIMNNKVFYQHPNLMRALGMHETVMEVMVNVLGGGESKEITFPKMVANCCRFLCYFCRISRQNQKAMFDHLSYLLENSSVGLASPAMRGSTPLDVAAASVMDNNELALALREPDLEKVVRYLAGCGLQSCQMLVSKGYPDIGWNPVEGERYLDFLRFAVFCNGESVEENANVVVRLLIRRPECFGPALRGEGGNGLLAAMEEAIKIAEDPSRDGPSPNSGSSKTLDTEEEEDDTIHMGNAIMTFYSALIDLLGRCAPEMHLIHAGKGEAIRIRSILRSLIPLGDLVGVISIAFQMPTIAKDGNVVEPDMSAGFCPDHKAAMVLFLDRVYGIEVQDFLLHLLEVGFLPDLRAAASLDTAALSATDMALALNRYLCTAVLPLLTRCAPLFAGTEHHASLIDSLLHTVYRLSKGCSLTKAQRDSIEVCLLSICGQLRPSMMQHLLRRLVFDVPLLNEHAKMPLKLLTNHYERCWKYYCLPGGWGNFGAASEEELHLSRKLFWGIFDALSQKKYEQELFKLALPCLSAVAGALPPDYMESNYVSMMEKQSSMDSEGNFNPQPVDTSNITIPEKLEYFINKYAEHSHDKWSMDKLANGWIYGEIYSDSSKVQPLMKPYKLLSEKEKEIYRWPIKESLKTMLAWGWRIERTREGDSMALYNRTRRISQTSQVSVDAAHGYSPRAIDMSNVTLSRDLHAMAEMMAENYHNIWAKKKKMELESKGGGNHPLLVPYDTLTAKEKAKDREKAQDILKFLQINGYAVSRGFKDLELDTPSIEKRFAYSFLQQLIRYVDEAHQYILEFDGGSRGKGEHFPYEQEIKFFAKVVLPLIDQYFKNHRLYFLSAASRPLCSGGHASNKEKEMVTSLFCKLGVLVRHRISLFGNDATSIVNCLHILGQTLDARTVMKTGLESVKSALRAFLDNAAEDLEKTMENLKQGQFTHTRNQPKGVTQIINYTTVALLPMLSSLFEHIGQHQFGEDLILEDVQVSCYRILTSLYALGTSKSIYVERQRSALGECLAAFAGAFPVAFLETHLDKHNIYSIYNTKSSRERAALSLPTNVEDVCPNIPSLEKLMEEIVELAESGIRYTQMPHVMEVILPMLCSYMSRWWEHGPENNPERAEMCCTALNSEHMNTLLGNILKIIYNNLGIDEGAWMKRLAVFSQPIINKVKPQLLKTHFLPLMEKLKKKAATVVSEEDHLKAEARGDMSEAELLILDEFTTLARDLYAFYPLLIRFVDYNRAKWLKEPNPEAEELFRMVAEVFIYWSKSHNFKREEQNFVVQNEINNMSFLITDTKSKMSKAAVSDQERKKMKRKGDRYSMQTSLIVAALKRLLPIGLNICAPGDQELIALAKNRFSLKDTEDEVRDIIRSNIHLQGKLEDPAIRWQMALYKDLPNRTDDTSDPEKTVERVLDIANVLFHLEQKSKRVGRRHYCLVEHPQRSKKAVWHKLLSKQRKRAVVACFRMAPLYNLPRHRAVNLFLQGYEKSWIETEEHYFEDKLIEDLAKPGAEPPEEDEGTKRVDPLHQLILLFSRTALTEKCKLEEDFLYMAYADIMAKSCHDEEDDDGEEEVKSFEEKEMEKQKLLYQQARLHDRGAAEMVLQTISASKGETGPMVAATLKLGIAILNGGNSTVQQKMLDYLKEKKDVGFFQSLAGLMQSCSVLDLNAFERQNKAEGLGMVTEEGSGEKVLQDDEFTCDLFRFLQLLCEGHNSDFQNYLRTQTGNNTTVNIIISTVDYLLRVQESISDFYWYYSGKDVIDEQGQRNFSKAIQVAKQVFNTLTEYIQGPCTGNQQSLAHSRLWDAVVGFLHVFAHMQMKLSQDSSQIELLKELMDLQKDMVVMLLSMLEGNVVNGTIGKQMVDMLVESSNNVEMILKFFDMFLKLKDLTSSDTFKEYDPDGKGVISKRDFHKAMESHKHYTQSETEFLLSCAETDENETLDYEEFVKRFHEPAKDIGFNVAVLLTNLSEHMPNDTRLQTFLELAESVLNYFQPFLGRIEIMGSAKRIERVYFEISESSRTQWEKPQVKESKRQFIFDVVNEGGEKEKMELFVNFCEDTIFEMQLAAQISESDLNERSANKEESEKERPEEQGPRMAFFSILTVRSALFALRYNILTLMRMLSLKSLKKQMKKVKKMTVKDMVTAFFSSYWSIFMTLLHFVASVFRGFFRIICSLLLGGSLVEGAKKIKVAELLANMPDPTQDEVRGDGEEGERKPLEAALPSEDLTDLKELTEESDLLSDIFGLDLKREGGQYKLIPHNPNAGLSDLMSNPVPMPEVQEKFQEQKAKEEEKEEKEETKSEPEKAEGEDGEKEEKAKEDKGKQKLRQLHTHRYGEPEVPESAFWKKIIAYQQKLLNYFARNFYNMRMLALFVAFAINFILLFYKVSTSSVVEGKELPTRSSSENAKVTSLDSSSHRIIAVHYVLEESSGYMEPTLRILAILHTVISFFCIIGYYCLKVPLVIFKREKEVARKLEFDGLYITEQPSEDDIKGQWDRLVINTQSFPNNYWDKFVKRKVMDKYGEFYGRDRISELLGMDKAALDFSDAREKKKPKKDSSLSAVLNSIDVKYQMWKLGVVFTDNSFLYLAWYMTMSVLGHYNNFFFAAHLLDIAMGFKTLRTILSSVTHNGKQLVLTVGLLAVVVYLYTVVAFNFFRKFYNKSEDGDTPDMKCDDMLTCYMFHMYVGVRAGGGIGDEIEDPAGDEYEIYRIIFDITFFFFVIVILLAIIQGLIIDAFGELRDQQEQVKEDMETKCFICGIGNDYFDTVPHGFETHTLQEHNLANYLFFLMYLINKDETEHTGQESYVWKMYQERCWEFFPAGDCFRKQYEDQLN
T1 sequence (P68106 whole entry partner): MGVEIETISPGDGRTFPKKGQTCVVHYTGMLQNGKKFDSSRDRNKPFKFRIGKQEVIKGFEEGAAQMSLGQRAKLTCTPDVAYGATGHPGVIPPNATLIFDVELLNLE
Procedure: PKA-phosphorylated cardiac sarcoplasmic reticulum (CSR) (approximately 20 μg) is incubated with 250 nM calstabin2 (FKBP12.6) in 100 μl binding buffer (10 mM imidazole, 300 mM sucrose, pH 7.4) with a known concentration of the test compound. Calstabin2 is added as the last reagent in the reaction mixture. The binding is performed at room temperature for 30 minutes. After the binding reaction, the mixture is centrifuged for 10 minutes at 100,000 xg. The resulting pellet is washed 4 times in binding buffer. After each wash, the tubes are centrifuged at 100,000 xg for 10 minutes. After the final wash, the supernatant is aspirated off 20 μl of 2×SDS-PAGE loading buffer is added to each pellet, and the pellet is resuspended. The mixture is heated to 90° C. for 4 minutes, and the proteins are analysed by 15% SDS-PAGE. Calstabin2 binding was detected with an αFKBP (1:2000) primary antibody and an IR-labeled anti-rabbit IgG from LiCor Biosciences as the secondary antibody. The blot was developed with a LiCor Odyssey system.

SMILES	Binding [nM]
COc1ccc2c(c1)CN(C(=O)CCN1CCC(Cc3ccccc3)CC1)C[C@@H](C)S2	100
COc1ccc2c(c1)CN(C(=O)CCN1CCC(Cc3ccccc3)CC1)C(C)CS2 (stereo not drawn)	100
COc1ccc2c(c1)CN(C(=O)CCN1CCC(Cc3ccccc3)CC1)[C@@H](C)[C@@H](C)S2	100
COc1ccc2c(c1)CN(C(=O)CCN1CCC(Cc3ccccc3)CC1)C[C@@H](C)O2	100
COc1ccc2c(c1)CN(C(=O)CCN1CCC(Cc3ccccc3)CC1)C[C@H](C)O2	100
COc1cccc(OC)c1CN(C)C(=O)CCN1CCC(Cc2ccccc2)CC1	1000
COc1ccc2c(c1)CN(C(=O)CCN1CCC(Cc3ccccc3)CC1)[C@H](C)[C@H](C)S2	1000
COc1ccc2c(c1)C/C(=C\CCN1CCC(Cc3ccccc3)CC1)CCS2	1000
COc1ccc2c(c1)C/C(=C/CCN1CCC(Cc3ccccc3)CC1)CCS2	100
